Data on 27 molecules can be found in patent EP4745135A1 (Gluetacs Therapeutics (Shanghai) Co., Ltd., priority 2023, dated 2025).

Bounds are passed on as bounds.

In this assay the target is T1, human Cereblon WT GST-tagged protein (Homo sapiens, UniProt Q96SW2).
T1 construct: purchased CISBIO 64BDCRBNPEH
Description: CRBN-binding affinity, HTRF (CEREBLON BINDING kit). To be noted: for IC50: CRBN binding, HTRF, 3 hours at room temperature, read-out: HTRF IC50; for inhibition at 0.5 µM: read-out: Inhibition Rate at 0.5 µM (%); for inhibition at 2 µM: read-out: Inhibition Rate at 2 µM (%). The method, then: The CEREBLON BINDING kits (specification: 10,000 tests; product number: Catalog # 64BDCRBNPEH; CISBIO company) was used to determine the CRBN binding ability of the compounds to be tested through a HTRF method (homogeneous time-resolved fluorescence). The specific methods are as follows: • 1. […] Specifically, diluent #9 (1X) solution was used as the diluent, and multiple concentration gradients were set. […] Then, 2.5 µL of human Cereblon WT GST-tagged protein solution was added to each well. Finally, 5 µL of the thoroughly mixed Thalidomide-Re reagent and GST Eu antibody working solution were added to each of the aforementioned wells. […] The blank control wells were sequentially added with 2.5 µL of diluent #9 (1X) solution, 2.5 µL of PROTAC binding buffer, and 5 µL of thoroughly mixed Thalidomide-Re reagent and GST Eu antibody working solution. • 4.
For orientation: In TR-FRET formats the signal depends on donor and acceptor labels being close together.

T1 sequence (Q96SW2 whole entry): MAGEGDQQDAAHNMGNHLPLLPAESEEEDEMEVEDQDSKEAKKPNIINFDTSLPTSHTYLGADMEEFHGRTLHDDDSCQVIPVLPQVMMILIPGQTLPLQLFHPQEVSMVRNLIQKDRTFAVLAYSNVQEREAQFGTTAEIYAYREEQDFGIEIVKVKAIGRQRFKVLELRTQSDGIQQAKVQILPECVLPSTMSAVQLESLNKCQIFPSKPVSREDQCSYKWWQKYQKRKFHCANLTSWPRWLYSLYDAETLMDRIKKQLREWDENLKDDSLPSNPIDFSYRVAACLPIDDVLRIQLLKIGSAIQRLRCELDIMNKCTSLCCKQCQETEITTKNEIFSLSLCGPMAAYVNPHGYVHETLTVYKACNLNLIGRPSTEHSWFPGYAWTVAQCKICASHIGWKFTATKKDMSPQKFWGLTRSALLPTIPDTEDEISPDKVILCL

For the molecule `O=C1CCC(N2Cc3ccc(CN4CCc5sccc5C4)cc3C2=S)C(=O)N1` (stereo not drawn) [GT-05039, 3-(6-((6,7-dihydrothieno[3,2-c]pyridin-5(4H)-yl)methyl)-1-thioxoisoindolin-2-yl)piperidine-2,6-dione], the IC50 is 100 to 500 nM.

Consider `O=C1CCC(N2Cc3ccc(CN4CCN(c5nsc6ccccc56)CC4)cc3C2=S)C(=O)N1` (stereo not drawn) [GT-05040, 3-(6-((4-(benzo[d]isothiazol-3-yl)piperazin-1-yl)methyl)-1-thioxoisoindolin-2-yl)piperidine-2,6-dione], for which the concentration for half-maximal inhibition (IC50) is 100 to 500 nM. Regarding `O=C1CCC(N2Cc3cc(CN4CCn5c(nnc5C(F)(F)F)C4)ccc3C2=S)C(=O)N1` (stereo not drawn) [GT-05090, 3-(1-thioxo-5-((3-(trifluoromethyl)-5,6-dihydro-[1,2,4]triazolo[4,3-a]pyrazin-7(8H)-yl)methyl)isoindolin-2-yl)piperidine-2,6-dione], the IC50 lay within 100 to 500 nM. Still for that read-out and setting: under `O=C1CCC(N2Cc3cc(CN4CCN(c5nsc6ccccc56)CC4)ccc3C2=S)C(=O)N1` (stereo not drawn) [GT-05091, 3-(5-((4-(benzo[d]isothiazol-3-yl)piperazin-1-yl)methyl)-1-thioxoisoindolin-2-yl)piperidine-2,6-dione] stands less than 100 nM; under `O=C1CCC(N2Cc3cc(CN4CCc5sccc5C4)ccc3C2=S)C(=O)N1` (stereo not drawn) [GT-05093, 3-(5-((6,7-dihydrothieno[3,2-c]pyridin-5(4H)-yl)methyl)-1-thioxoisoindolin-2-yl)piperidine-2,6-dione], less than 100 nM.

As to `O=C1CCC(N2Cc3c(CO)cccc3C2=S)C(=O)N1` (stereo not drawn) [GT-06981, 3-(4-(hydroxymethyl)-1-thioxoisoindolin-2-yl)piperidine-2,6-dione], the half-maximal inhibitory concentration (IC50) is less than 100 nM. For `O=C1CCC(N2Cc3cc(CN4CC5CCC(C4)N5C(c4ccccc4)c4ccccc4)ccc3C2=S)C(=O)N1` (stereo not drawn) [GT-07849, 3-(5-((8-benzhydryl-3,8-diazabicyclo[3.2.1]octan-3-yl)methyl)-1-thioxoisoindolin-2-yl)piperidine-2,6-dione], the inhibition at 0.5 µM fell in the range of 30 to 40% and the inhibition at 2 µM lay within 60 to 80%.

`O=C1CCC(N2Cc3cc(CN4CCN(C(=O)C5=C(c6ccc(F)cc6)CCCC5)CC4)ccc3C2=S)C(=O)N1` (stereo not drawn) [GT-08165, 3-(5-((4-(4'-fluoro-3,4,5,6-tetrahydro-[1,1'-biphenyl]-2-carbonyl)piperazin-1-yl)methyl)-1-thioxoisoindolin-2-yl)piperidine-2,6-dione]: the inhibition at 0.5 µM fell in the range of 60 to 80% and the inhibition at 2 µM is 80 to 100%.

For `O=C1CCC(N2Cc3c(CN4CCN(C(c5ccccc5)c5ccccn5)CC4)cccc3C2=S)C(=O)N1` (stereo not drawn) [GT-08192, 3-(4-((4-(phenyl(pyridin-2-yl)methyl)piperazin-1-yl)methyl)-1-thioxoisoindolin-2-yl)piperidine-2,6-dione], the inhibition at 0.5 µM was in the range of 60 to 80% and the inhibition at 2 µM was 80 to 100%.

Consider `O=C1CCC(N2Cc3c(CN4CCN(C(c5ccccn5)c5ccccn5)CC4)cccc3C2=S)C(=O)N1` (stereo not drawn) [GT-08201, 3-(4-((4-(di(pyridin-2-yl)methyl)piperazin-1-yl)methyl)-1-thioxoisoindolin-2-yl)piperidine-2,6-dione], for which the inhibition at 0.5 µM lay within 40 to 53% and the inhibition at 2 µM was 80 to 100%. As to `O=C1CCC(N2Cc3c(CN4CC5CCC4CN5C(c4ccccc4)c4ccccc4)cccc3C2=S)C(=O)N1` (stereo not drawn) [GT-08233, 3-(4-((5-benzhydryl-2,5-diazabicyclo[2.2.2]octan-2-yl)methyl)-1-thioxoisoindolin-2-yl)piperidine-2,6-dione], the inhibition at 0.5 µM lay within 53 to 60% and the inhibition at 2 µM lay within 80 to 100%. `O=C1CCC(N2Cc3c(CN4CC5CCC(C4)N5C(c4ccccc4)c4ccccc4)cccc3C2=S)C(=O)N1` (stereo not drawn) [GT-08234, 3-(4-((8-benzhydryl-3,8-diazabicyclo[3.2.1]octan-3-yl)methyl)-1-thioxoisoindolin-2-yl)piperidine-2,6-dione]: the inhibition at 0.5 µM was in the range of 40 to 53% and the inhibition at 2 µM was 60 to 80%. The corresponding values for `O=C1CCC(N2Cc3cc(CN4CCN(c5ccc(C(F)(F)F)cc5)CC4)ccc3C2=S)C(=O)N1` (stereo not drawn) [GT-08239, 3-(1-thioxo-5-((4-(4-(trifluoromethyl)phenyl)piperazin-1-yl)methyl)isoindolin-2-yl)piperidine-2,6-dione] are 40 to 53% and 80 to 100%. The corresponding values for `O=C1CCC(N2Cc3c(CN4CCC(N(c5ccccc5)c5ccccn5)CC4)cccc3C2=S)C(=O)N1` (stereo not drawn) [GT-08243, 3-(4-((4-(phenyl(pyridin-2-yl)amino)piperidin-1-yl)methyl)-1-thioxoisoindolin-2-yl)piperidine-2,6-dione] are 20 to 30% and 60 to 80%.

For `O=C1CCC(N2Cc3c(CN4CCN(c5cccc(Br)c5)CC4)cccc3C2=S)C(=O)N1` (stereo not drawn) [GT-08261, 3-(4-((4-(3-bromophenyl)piperazin-1-yl)methyl)-1-thioxoisoindolin-2-yl)piperidine-2,6-dione], the inhibition at 0.5 µM was 30 to 40% and the inhibition at 2 µM fell in the range of 60 to 80%. For `O=C1CCC(N2Cc3c(CN4CCN(Cc5ccccc5-c5ccc(Cl)cc5)CC4)cccc3C2=S)C(=O)N1` (stereo not drawn) [GT-08295, 3-(4-((4-((4'-chloro-[1,1'-biphenyl]-2-yl)methyl)piperazin-1-yl)methyl)-1-thioxoisoindolin-2-yl)piperidine-2,6-dione], the inhibition at 0.5 µM fell in the range of 30 to 40% and the inhibition at 2 µM fell in the range of 60 to 80%. For `CC1(C)CC(c2ccc(Cl)cc2)=C(CN2CCN(Cc3cccc4c3CN(C3CCC(=O)NC3=O)C4=S)CC2)CO1` (stereo not drawn) [GT-08296, 3-(4-((4-((4-(4-chlorophenyl)-6,6-dimethyl-5,6-dihydro-2H-pyran-3-yl)methyl)piperazin-1-yl)methyl)-1-thioxoisoindolin-2-yl)piperidine-2,6-dione] the same measures were 40 to 53% and 60 to 80%. For `O=C1CCC(N2Cc3c(CN4CCN(c5cccs5)CC4)cccc3C2=S)C(=O)N1` (stereo not drawn) [GT-08297, 3-(4-((4-(thiophen-2-yl)piperazin-1-yl)methyl)-1-thioxoisoindolin-2-yl)piperidine-2,6-dione] the same measures were 60 to 80% and 80 to 100%.

Turning to `O=C1CCC(N2Cc3c(CN4CC=C(c5cccs5)CC4)cccc3C2=S)C(=O)N1` (stereo not drawn) [GT-08299, 3-(4-((4-(thiophen-2-yl)-3,6-dihydropyridin-1 (2H)-yl)methyl)-1-thioxoisoindolin-2-yl)piperidine-2,6-dione], the inhibition at 0.5 µM lay within 53 to 60% and the inhibition at 2 µM lay in the range of 60 to 80%.

Turning to `Cc1ccc(N2CCN(Cc3ccc4c(c3)CN(C3CCC(=O)NC3=O)C4=S)CC2)c(C)c1` (stereo not drawn) [GT-08614, 3-(5-((4-(2,4-dimethylphenyl)piperazin-1-yl)methyl)-1-thioxoisoindolin-2-yl)piperidine-2,6-dione], the inhibition at 0.5 µM lay in the range of 30 to 40% and the inhibition at 2 µM was in the range of 60 to 80%. For `O=C1CCC(N2Cc3c(CN4CCN(c5ncccc5C(F)(F)F)CC4)cccc3C2=S)C(=O)N1` (stereo not drawn) [GT-08700, 3-(1-thioxo-4-((4-(3-(trifluoromethyl)pyridin-2-yl)piperazin-1-yl)methyl)isoindolin-2-yl)piperidine-2,6-dione] the same measures were 53 to 60% and 80 to 100%. For `Cc1cc(N2CCN(Cc3cccc4c3CN(C3CCC(=O)NC3=O)C4=S)CC2)ccn1` (stereo not drawn) [GT-08727, 3-(4-((4-(2-methylpyridin-4-yl)piperazin-1-yl)methyl)-1-thioxoisoindolin-2-yl)piperidine-2,6-dione] the same measures were 53 to 60% and 80 to 100%.

`O=C1CCC(N2Cc3c(CN4CCN(c5ccnc(F)c5F)CC4)cccc3C2=S)C(=O)N1` (stereo not drawn) [GT-08736, 3-(4-((4-(2,3-difluoropyridin-4-yl)piperazin-1-yl)methyl)-1-thioxoisoindolin-2-yl)piperidine-2,6-dione]: the inhibition at 0.5 µM was 60 to 80% and the inhibition at 2 µM is 80 to 100%. The corresponding values for `O=C1CCC(N2Cc3c(CN4CCC(c5noc6ccccc56)CC4)cccc3C2=S)C(=O)N1` (stereo not drawn) [GT-08816, 3-(4-((4-(benzo[d]isoxazol-3-yl)piperidin-1-yl)methyl)-1-thioxoisoindolin-2-yl)piperidine-2,6-dione] are 60 to 80% and 80 to 100%. For `O=C1CCC(N2Cc3c(CN4CCC(C5CCOc6cc(F)ccc65)CC4)cccc3C2=S)C(=O)N1` (stereo not drawn) [GT-08854, 3-(4-((4-(7-fluorochroman-4-yl)piperidin-1-yl)methyl)-1-thioxoisoindolin-2-yl)piperidine-2,6-dione] the same measures were 40 to 53% and 80 to 100%. Take `Cc1nc(N2CCN(Cc3cccc4c3CN(C3CCC(=O)NC3=O)C4=S)CC2)c2c(-c3ccccc3)csc2n1` (stereo not drawn) [GT-08921, 3-(4-((4-(2-methyl-5-phenylthieno[2,3-d]pyrimidin-4-yl)piperazin-1-yl)methyl)-1-thioxoisoindolin-2-yl)piperidine-2,6-dione]: the inhibition at 0.5 µM lay in the range of 30 to 40% and the inhibition at 2 µM was in the range of 80 to 100%. On to `O=C1CCC(N2Cc3c(CN4CCN(c5nc6c(c(N7CCOCC7)n5)SCC6)CC4)cccc3C2=S)C(=O)N1` (stereo not drawn) [GT-08969, 3-(4-((4-(4-morpholino-6,7-dihydrothieno[3,2-d]pyrimidin-2-yl)piperazin-1-yl)methyl)-1-thioxoisoindolin-2-yl)piperidine-2,6-dione], for which the inhibition at 0.5 µM was in the range of 60 to 80% and the inhibition at 2 µM fell in the range of 80 to 100%.

A word on the IC50: it is the point on the concentration scale where inhibition reaches its midpoint. Usually inhibition stands for the share of the control response that was lost under treatment.
